The text below walks through data of patent US20200236940A1, “2-(HET)ARYL-SUBSTITUTED FUSED HETEROCYCLE DERIVATIVES AS PESTICIDES” (Bayer Aktiengesellschaft, priority 2017, published 2020).

Common to all, as to assay type: in vivo
For one assay, the system named is Ctenocephalides felis. Put plainly: Ctenocephalides felis oral test. The following applies: application rate 100 ppm, after 2 days. The method, then: Ctenocephalides felis—Oral Test Solvent: dimethyl sulfoxide To produce a suitable active ingredient formulation, 10 mg of active ingredient are mixed with 0.5 ml of dimethyl sulfoxide. Dilution with citrated cattle blood gives the desired concentration. About 20 unfed adult cat fleas (Ctenocephalides felis) are placed into a chamber which is closed at the top and bottom with gauze. A metal cylinder whose bottom end is closed with parafilm is placed onto the chamber. The cylinder contains the blood/active ingredient formulation, which can be imbibed by the fleas through the parafilm membrane. After 2 days, the kill in % is determined. 100% means that all of the fleas have been killed; 0% means that none of the fleas have been killed.

Another assay concerns Lucilia cuprina. Put plainly: Lucilia cuprina test. Conditions: after 2 days, L1 larvae. As to the method: Lucilia cuprina Test Solvent: dimethyl sulfoxide To produce a suitable active ingredient formulation, 10 mg of active ingredient are mixed with 0.5 ml of dimethyl sulfoxide, and the concentrate is diluted with water to the desired concentration. About 20 L1 larvae of the Australian sheep blowfly (Lucilia cuprina) are transferred into a test vessel containing minced horsemeat and the active ingredient formulation of the desired concentration. After 2 days, the kill in % is determined. 100% means that all the larvae have been killed; 0% means that no larvae have been killed.

For the next assay, the system named is Meloidogyne incognita. Put plainly: Meloidogyne incognita test. Conditions: application rate 20 ppm, after 14 days, formation of galls on lettuce. As to the method:
Meloidogyne incognita Test Solvent: 125.0 parts by weight of acetone To produce a suitable active ingredient formulation, 1 part by weight of active compound is mixed with the stated amount of solvent and the concentrate is diluted to the desired concentration with water. Vessels are filled with sand, active compound solution, an egg/larvae suspension of the southern root-knot nematode (Meloidogyne incognita) and lettuce seeds. The lettuce seeds germinate and the plants develop. The galls develop on the roots. After 14 days, the nematicidal efficacy in % is determined by the formation of galls. 100% means that no galls were found; 0% means that the number of galls on the treated plants corresponds to the untreated control.

The test system of assay [1] is Myzus persicae. Put plainly: Myzus persicae oral test. Conditions: 120 h, application rate 4 ppm, after 5 days, read-out: efficacy. The method, then:
Myzus persicae—Oral Test Solvent: 100 parts by weight of acetone To produce a suitable active ingredient formulation, 1 part by weight of active ingredient is dissolved with the stated parts by weight of solvent and made up to the desired concentration with water. 50 μl of the active ingredient formulation are transferred into microtitre plates and made up to a final volume of 200 μl with 150 μl of IPL41 insect medium (33%+15% sugar). Subsequently, the plates are sealed with parafilm, which a mixed population of green peach aphids (Myzus persicae) within a second microtitre plate is able to puncture and imbibe the solution. After 5 days, the efficacy in % is determined. 100% means that all the aphids have been killed; 0% means that no aphids have been killed.

Assay [2] deals with Myzus persicae. Put plainly: Myzus persicae spray test (MYZUPE), Chinese cabbage leaf discs. Conditions: foliar, 120 h. As to the method: Myzus persicae—Spray Test [table] To produce a suitable active ingredient formulation, 1 part by weight of active ingredient is dissolved with the specified parts by weight of solvent and made up to the desired concentration with water containing an emulsifier concentration of 1000 ppm. To produce further test concentrations, the formulation is diluted with emulsifier-containing water. Discs of Chinese cabbage leaves (Brassica pekinensis) infested by all stages of the green peach aphid (Myzus persicae) are sprayed with an active ingredient formulation of the desired concentration. After 5 days, the efficacy in % is determined. 100% means that all the aphids have been killed; 0% means that no aphids have been killed. Myzus persicae—Spray Test (MYZUPE) [table] To produce a suitable active ingredient formulation, 1 part by weight of active ingredient is dissolved with the specified parts by weight of solvent and made up to the desired concentration with water containing an emulsifier concentration of 1000 ppm. To produce further test concentrations, the formulation is diluted with emulsifier-containing water. Discs of Chinese cabbage leaves (Brassica pekinensis) infested by all stages of the green peach aphid (Myzus persicae) are sprayed with an active ingredient formulation of the desired concentration. After the desired period of time, the efficacy in % is determined. 100% means that all the aphids have been killed; 0% means that no aphids have been killed.

Assay [3] deals with Phaedon cochleariae. Put plainly: Phaedon cochleariae spray test, Chinese cabbage leaf discs. Conditions: foliar, 168 h, application rate 100 g/ha, after 7 days, larvae, read-out: efficacy. The method, then:
Phaedon cochleariae—Spray Test
To produce a suitable active ingredient formulation, 1 part by weight of active ingredient is dissolved with the specified parts by weight of solvent and made up to the desired concentration with water containing an emulsifier concentration of 1000 ppm. To produce further test concentrations, the formulation is diluted with emulsifier-containing water.
After 7 days, the efficacy in % is determined. 100% means that all the beetle larvae have been killed; 0% means that no beetle larvae have been killed.

Assay [4] concerns Spodoptera frugiperda. Put plainly: Spodoptera frugiperda spray test, maize leaf discs. Conditions: application rate 100 g/ha, after 7 days, caterpillars. As to the method: Spodoptera frugiperda—Spray Test [table] To produce a suitable active ingredient formulation, 1 part by weight of active ingredient is dissolved with the specified parts by weight of solvent and made up to the desired concentration with water containing an emulsifier concentration of 1000 ppm. To produce further test concentrations, the formulation is diluted with emulsifier-containing water. Leaf discs of maize (Zea mays) are sprayed with an active ingredient formulation of the desired concentration and, after drying, populated with caterpillars of the armyworm (Spodoptera frugiperda). After 7 days, the efficacy in % is determined. 100% means that all the caterpillars have been killed; 0% means that no caterpillar has been killed.

For another assay, the system named is Nilaparvata lugens. Kind of assay: Nilaparvata lugens spray test (NILALU). The following applies: 96 h, 500 g of ai/ha, 4 dat, read-out: % efficacy. As to the method:
Nilaparvata lugens—Spray Test (NILALU)
(§1) To produce a suitable active ingredient formulation, 1 part by weight of active ingredient is dissolved with the specified parts by weight of solvent and made up to the desired concentration with water containing an emulsifier concentration of 1000 ppm. To produce further test concentrations, the formulation is diluted with emulsifier-containing water. If the addition of ammonium salts or/and penetrants is required, these are each added in a concentration of 1000 ppm to the formulation solution.
Rice plants (Oryza sativa) are sprayed with an active ingredient formulation of the desired concentration and then populated with larvae of the brown planthopper (Nilaparvata lugens).
[…], the efficacy in % is determined. 100% means that all of the planthoppers have been killed; 0% means that none of the planthoppers have been killed.

Assay [5] relates to Spodoptera frugiperda. Kind of assay: Spodoptera frugiperda drench test (SPODFR D). Conditions: soil, 336 h, 14 dat, read-out: % efficacy. The method, then:
Spodoptera frugiperda—Drench Test (SPODFR D) [table] To produce a suitable active ingredient formulation, 1 part by weight of active ingredient is mixed with the specified amounts of solvent and emulsifier, and the concentrate is diluted with water to the desired concentration, it being necessary to take into account the volume of soil which is drenched. It should be ensured that a concentration of 40 ppm of emulsifier in the soil is not exceeded. To produce further test concentrations, water is used for dilution. Maize plants (Zea mays) in pots of soil are watered with an active ingredient formulation of the desired concentration and infected with caterpillars of the armyworm (Spodoptera frugiperda). After the desired time, the kill in % is determined. 100% means that all caterpillars have been killed; 0% means that none of the caterpillars have been killed.

Assay [6] concerns Phaedon cochleariae. Kind of assay: Phaedon cochleariae spray test (PHAECO), cabbage leaves. The following applies: 168 h, 7 dat, read-out: % efficacy. As to the method: Phaedon cochleariae—Spray Test (PHAECO)
Solvent: 14 parts by weight of dimethylformamide
Emulsifier: alkylaryl polyglycol ether
as §1
Cabbage leaves (Brassica oleracea) are sprayed with an active ingredient formulation of the desired concentration and populated with larvae of the mustard beetle (Phaedon cochleariae).
After the desired time, the kill in % is determined. 100% means that all the beetle larvae have been killed; 0% means that no beetle larvae have been killed.

As for `CCS(=O)(=O)c1ccc(-n2ncn(-c3ccc(Cl)cc3)c2=O)nc1-c1nc2cc(C(F)(F)F)nc(C)c2n1C` [Example I-001], the “efficacy (kill)” value in the assay on Ctenocephalides felis, in the assay on Lucilia cuprina (application rate 20 ppm) and with Lucilia cuprina (application rate 100 ppm) was 100% each time. The compound further gave a nematicidal efficacy in the assay with Meloidogyne incognita of 90%. In addition, the pest or weed control at 4 ppm with Myzus persicae [1] was determined as 90%. The Emax at 20 g/ha in the assay on Myzus persicae [2] (MYZUPE, 20 g of ai/ha, 5 dat, read-out: % efficacy) worked out at 90%. The Emax at 100 g/ha with Myzus persicae [2] (MYZUPE, 100 g of ai/ha, 5 dat, read-out: % efficacy) came out at 90%. In addition, the pest or weed control at 20 g/ha with Myzus persicae [2] (application rate 20 g/ha, after 5 days, read-out: efficacy) was 90%. Moreover, the pest or weed control at 100 g/ha in the assay on Myzus persicae [2] (application rate 100 g/ha, after 5 days, read-out: efficacy) amounted to 90%; in the assay on Phaedon cochleariae [3] it was 100%. In the assay on Spodoptera frugiperda [4], this compound registered an efficacy of 100%. For the same compound, in the assay on Nilaparvata lugens, the Emax at 500 g/ha amounted to 60%. Also, the Emax at 20 ppm in the assay on Spodoptera frugiperda [5] came out at 60%. In the assay on Phaedon cochleariae [6], the Emax at 0.8 ppm came out at 100%.
